# Tested on: psoriasin secretion
# Experiment: In-vitro generation of AMP (psoriasin) in differentiated NHEK keratinocytes, psoriasin ELISA of culture supernatant
# Format: cell-based, Human
# Conditions: NHEK cells, KGM + 2 mM calcium chloride, 72 h treatment; fold change over control (Example A); concentrations per Table 3
# Procedure: In-Vitro Experiment with Combination of Niacinamide and Picolinamide as Per the Present Invention for Generation of AMP (Psoriasin): The experiment was done using the following protocol: Step 1: Human neonatal primary skin keratinocyte (NHEK) cells was obtained from Lonza®. The experiment was done with the above-mentioned cells with passage between 3 and 4. Then, the cells were seeded (35,000 cells/well) in 24 well plate with keratinocyte growth media (KGM) obtained from Invitrogen®. The plate was then incubated at 37±2° C. in a CO2 incubator for 48 hours. Step 2: After 48 hours of incubation, cell differentiation was induced by replacing media with fresh KGM supplemented with 2 mM calcium chloride solution. This was then followed by incubation at 37±2° C. in a CO2 incubator for 48 hours. Step 3: After that, the cells were treated with different concentration of Niacinamide and picolinamide and their combination at various concentration as per following Table 3 with keratinocyte growth media supplemented with 2 mM calcium chloride solution: Step 4: After the above treatment, cells were again incubated at 37±2° C. in a CO2 incubator for 72 hours Step 5: After 72 h of incubation, cell culture supernatant from each well was collected in a sterile tube. The samples were then stored at −80° C. until used for testing psoriasin secretion by standard ELISA technique using psoriasin ELISA kit obtained from Circulx® (No: CY—8073). In the current experiment, psoriasin was used as a marker for AMP. Step 6: The ELISA method was performed by using 100 μL of cell culture supernatant from each sample. The data is expressed in terms of fold change over control (without Niacinamide and/or picolinamide, Example A).
row,Structure (SMILES),Fold change in psoriasin secretion
1,"NC(=O)c1ccccn1 [Example D, picolinamide]",3.5
2,"NC(=O)c1cccnc1 [Example C, Niacinamide]",3.3
3,"NC(=O)c1ccccn1 [Example E, picolinamide]",3.8
4,"NC(=O)c1cccnc1 [Example B, Niacinamide]",1.8

# Source: patent publication US11298312B2, “Composition comprising niacinamide and picolinamide” (Conopco, Inc., priority 2015, dated 2022)
